# Results reported in patent US20240174690A1, “ANNULATED 2-AMINO-3-CYANO THIOPHENES AND DERIVATIVES FOR THE TREATMENT OF CANCER” (BOEHRINGER INGELHEIM INTERNATIONAL GMBH, priority 2021, published 2024).
# Key:
# [1] = system: KRAS G12C-dependent Ba/F3 cells; test: Ba/F3 proliferation assay, KRAS G12C; type: cell-based; details: Mus musculus, BaF3, 72 h, AlamarBlue
# How it was run: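 Proliferation of mutant-KRAS-driven Ba/F3 cells cultured without IL-3 is followed with AlamarBlue after compound addition. Curves are fitted from duplicate wells.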
# NCI-H2122 cells = test: NCI-H2122 CTG proliferation assay (120 h) (NSCLC, G12C); type: cell-based; details: Homo sapiens
# Method: NCI-H2122 CTG Proliferation Assay (120 h) (NSCLC, G12C)
# The CTG assay is designed to measure quantitatively the proliferation of NCI-H2122 cells (ATCC CRL-5985), using the CellTiter Glow Assay Kit (Promega G7571). Cells are grown in RPMI medium (ATCC) supplemented with Fetal Calf Serum (Life Technologies, Gibco BRL, Cat. No. 10270-106). On “day 0” 200 NCI-H2122 cells are seeded in 60 μL RPMI ATCC+10% FCS+Penstrep in a black 384-well plate, flat and clear bottom (Greiner, PNr. 781091). Cells are then incubated in the plates at 37° C. in a CO2 incubator overnight. On day 1, compounds (10 mM stock in DMSO) are added with the ECHO acoustic liquid handler system (Beckman Coulter), including DMSO controls. Plates are incubated for 120 h, and cell viability is measured using CellTiter-Glo luminescent cell viability reagent (Promega product code G7570). Viability (stated as percent of control) is defined as relative luminescence units RLU of each well divided by the RLU of cells in DMSO controls. IC50 values are determined from viability measurements by non-linear regression using a four parameter model.
# SAS cells = test: SAS CTG proliferation assay (120 h) (HNSCC, wt amplified); type: cell-based
# Method: SAS CTG Proliferation Assay (120 h) (HNSCC, Wt Amplified)
# (§1) SAS cells (JCRB0260) are dispensed into 384-well plates, flat and clear bottom (Greiner, PNr. 781091) at a density of 300 cells per well in 60 μL DMEM:F12 (Gibco 31330-038)+10% Fetal Calf Serum (HyClone, PNr.: SH30084.03) and incubated at 37° C. in a CO2 incubator overnight. The next day, compounds (10 mM stock in DMSO) are added with the ECHO acoustic liquid handler system (Beckman Coulter), including DMSO controls. Plates are incubated for 120 h, and cell viability is measured using CellTiter-Glo luminescent cell viability reagent (Promega product code G7570). Viability (stated as percent of control) is defined as relative luminescence units RLU of each well divided by the RLU of cells in DMSO controls. IC50 values are determined from viability measurements by non-linear regression using a four-parameter model.
# LOVO cells = test: LOVO CTG proliferation assay (120 h) (CRC, G13D); type: cell-based; details: Homo sapiens, CTG 120 h
# Method: LOVO CTG Proliferation Assay (120 h) (CRC, G13D)
# as §1, with “LOVO cells (ATCC” for “SAS cells (JCRB0260)”, “LOVO cells (ATCC CCL-229) are dispensed” for “SAS cells (JCRB0260) are dispensed”, “density of 1000 cells per” for “density of 300 cells per”, “60 μL DMEM (Sigma D6429)+10% Fetal Calf” for “60 μL DMEM:F12 (Gibco 31330-038)+10% Fetal Calf”
# [2] = Metabolic (microsomal) stability assay, human liver microsomes (HLM); type: in vitro ADME; details: predicted clearance as percent of liver blood flow, 1 μM
# How it was run: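 LC-MS/MS tracked parent disappearance at 0, 5, 15, 30 and 60 min in NADPH-initiated incubations with 1 mg/mL human microsomal protein and 1 μM compound at 37°C, pH 7.5. First-order fits gave intrinsic clearance, which was scaled up and reported as % QH. NADPH-free controls were also run.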
SMILES,IC50 [1] [nM],IC50 (NCI-H2122 cells) [nM],IC50 (LOVO cells) [nM],HLM QH [2] [%],IC50 (SAS cells) [nM]
C[C@H](Oc1cc(-c2cncnc2)nc(-c2noc3c2CCC[C@@]32CCCc3sc(N)c(C#N)c32)n1)[C@@H]1CCCN1C [II-82],82,2680,728,<24,990
C[C@H](Oc1cc(-c2ccn(C3COC3)n2)nc(-c2noc3c2CCC[C@@]32CCCc3sc(N)c(C#N)c32)n1)[C@@H]1C[C@H](F)CN1C [II-83],15,3820,2200,72,18
C[C@H](Oc1cc(-c2ccn(-c3ccsc3)n2)nc(-c2noc3c2CCC[C@@]32CCCc3sc(N)c(C#N)c32)n1)[C@@H]1CCCN1C [II-84],36,583,286,<24,52
C[C@H](Oc1cc(-c2ccccn2)nc(-c2noc3c2CCC[C@@]32CCCc3sc(N)c(C#N)c32)n1)[C@@H]1CCCN1C [II-85],19,1120,209,47,26
C[C@H](Oc1cc(-c2cnn(C)n2)nc(-c2noc3c2CCC[C@@]32CCCc3sc(N)c(C#N)c32)n1)[C@@H]1CCCN1C [II-86],25,2080,77,35,502
C[C@H](Oc1cc(-c2cn[nH]c2)nc(-c2noc3c2CCC[C@@]32CCCc3sc(N)c(C#N)c32)n1)[C@@H]1CCCN1C [II-87],47,1990,427,<24,107
C[C@H](Oc1cc([C@H]2CCOC2)nc(-c2noc3c2CCC[C@@]32CCCc3sc(N)c(C#N)c32)n1)[C@@H]1CCCN1C [II-88],6,434,62,26,2220
C[C@H](Oc1cc(-c2ccn(-c3ccccc3)n2)nc(-c2noc3c2CCC[C@@]32CCCc3sc(N)c(C#N)c32)n1)[C@@H]1CCCN1C [II-89],57,1530,453,<24,246
C[C@H](Oc1cc(N2CCc3cccnc32)nc(-c2noc3c2CCC[C@@]32CCCc3sc(N)c(C#N)c32)n1)[C@@H]1CCCN1C [II-90],157,1860,735,<24,4390
CO[C@@H]1C[C@@H]([C@H](C)Oc2cc(-c3ccn(C)n3)nc(-c3noc4c3CCC[C@@]43CCCc4sc(N)c(C#N)c43)n2)N(C)C1 [II-91],15,1090,136,46,70
C[C@H](Oc1cc(-n2cccc3cnnc2-3)nc(-c2noc3c2CCC[C@@]32CCCc3sc(N)c(C#N)c32)n1)[C@@H]1CCCN1C [II-92],47,1810,467,<24,275

# Second part, led by results:
IC50 [1] [nM],IC50 (NCI-H2122 cells) [nM],IC50 (LOVO cells) [nM],HLM QH [2] [%],SMILES,IC50 (SAS cells) [nM]
16,1560,136,44,C[C@H](Oc1cc(-n2ccnc2Cl)nc(-c2noc3c2CCC[C@@]32CCCc3sc(N)c(C#N)c32)n1)[C@@H]1CCCN1C [II-93],366
5,834,51,48,C[C@H](Oc1cc([C@@H]2CCOC2)nc(-c2noc3c2CCC[C@@]32CCCc3sc(N)c(C#N)c32)n1)[C@@H]1CCCN1C [II-94],82
30,1420,149,37,C[C@H](Oc1cc(C2COCCO2)nc(-c2noc3c2CCC[C@@]32CCCc3sc(N)c(C#N)c32)n1)[C@@H]1CCCN1C (stereo partly drawn) [II-95],5180
8,307,231,<24,C[C@H](Oc1cc(-c2ccn(C)n2)nc(-c2noc3c2CCC[C@@]32CCCc3sc(N)c(C#N)c32)n1)[C@@H]1CCCN1C [II-96],148
58,2020,683,<24,C[C@H](Oc1cc(-c2cccc(CO)c2)nc(-c2noc3c2CCC[C@@]32CCCc3sc(N)c(C#N)c32)n1)[C@@H]1CCCN1C [II-97],646
23,1020,608,<24,C[C@H](Oc1cc(-c2ccn(C3CC3)n2)nc(-c2noc3c2CCC[C@@]32CCCc3sc(N)c(C#N)c32)n1)[C@@H]1CCCN1C [II-98],30
28,1160,286,<24,C[C@H](Oc1cc(N2CCC(C#N)C2)nc(-c2noc3c2CCC[C@@]32CCCc3sc(N)c(C#N)c32)n1)[C@@H]1CCCN1C (stereo partly drawn) [II-99],88
19,2140,83,28,C[C@H](Oc1cc(-c2cn(C3COC3)nn2)nc(-c2noc3c2CCC[C@@]32CCCc3sc(N)c(C#N)c32)n1)[C@@H]1CCCN1C [II-100],3180
51,1520,1020,31,C[C@H](Oc1cc(-c2ccc(N)nc2)nc(-c2noc3c2CCC[C@@]32CCCc3sc(N)c(C#N)c32)n1)[C@@H]1CCCN1C [II-101],130
4,84,76,51,C[C@H](Oc1cc(-n2ccc(C#N)n2)nc(-c2noc3c2CCC[C@@]32CCCc3sc(N)c(C#N)c32)n1)[C@@H]1CCCN1C [II-102],71
31,2860,993,44,Cc1cn(-c2cc(O[C@@H](C)[C@@H]3CCCN3C)nc(-c3noc4c3CCC[C@@]43CCCc4sc(N)c(C#N)c43)n2)nn1 [II-106],96
5,5720,1010,45,CO[C@@H]1C[C@@H]([C@H](C)Oc2cc(-c3ccn(C4COC4)n3)nc(-c3noc4c3CCC[C@@]43CCCc4sc(N)c(C#N)c43)n2)N(C)C1 [II-107],7
13,441,76,<24,C[C@H](Oc1cc(-c2ccn(C3COC3)n2)nc(-c2noc3c2CCC[C@@]32CCCc3sc(N)c(C#N)c32)n1)[C@@H]1CCCN1C [II-109],20
14,953,92,47,C[C@H](Oc1cc(-n2ccc(Br)n2)nc(-c2noc3c2CCC[C@@]32CCCc3sc(N)c(C#N)c32)n1)[C@@H]1CCCN1C [II-110],68
10,858,309,<24,C[C@H](Oc1cc(-c2cnsc2)nc(-c2noc3c2CCC[C@@]32CCCc3sc(N)c(C#N)c32)n1)[C@@H]1CCCN1C [II-111],57
11,197,58,<24,C[C@H](O)Cn1ccc(-c2cc(O[C@@H](C)[C@@H]3CCCN3C)nc(-c3noc4c3CCC[C@@]43CCCc4sc(N)c(C#N)c43)n2)n1 [II-112],54
